Data as given in WO2009110655A1, “Novel beta substituted morita-baylis-hillman derivatives” (FOOD SCIENCE Co Ltd, priority 2008, dated 2009).

How the values were obtained:
[1] = system: human esophageal cancer cell line HEC4; experiment: MTT assay, anticancer effect (cytotoxicity) of β-substituted MBH derivatives; format: cell-based
Human HeLa cell lines = conditions: "It is reported"; cited from earlier work
[2] = 2 mg compound in 80 μl DMSO, 1 μl per well, 24 h at 37 °C, undiluted (FIGs. 1 and 2)
[3] = diluted 20-fold, 24 h at 37 °C (FIG. 3)

Row | Compound | oncolytic activity [1, 2] | viabilities of the cancer cells [1, 3] | further results
1 | CCCCCCCCCCCCC/C=C(/C(=O)OC)C(O[Si](CC)(CC)CC)C(C)=O (stereo not drawn) [SE-2, (E)-methyl-2-(l-triethylsiloxy-2-oxopropyl)hexadeca-2-enoate] | almost no oncolytic activity | – | –
2 | CCCCCCCCCCCCC/C=C(/C(=O)OC)C(O)C(C)=O (stereo not drawn) [SE-3, secokotomolide A] | – | about 50% | DNA damage (Human HeLa cell lines): apotositic DNA damage; induction of apoptosis (Human HeLa cell lines): significant induction of apoptosis
3 | CCCCCCCCCCCCC/C=C(/C(=O)OC)C(O)c1ccccc1 (stereo not drawn) [SE-5, (E)-methyl-2-(hydroxy(phenyl)methyl)hexateca-2-enoate] | – | about 50% | activity (comparison of diluted samples) ([1]; diluted samples, 20-fold, compared with SE-3 (FIG. 3)): a little higher activity than SE-3
4 | C=C(C)C(O[Si](CC)(CC)CC)/C(=C\CCCCCCCCCCCCC)C(=O)OC (stereo not drawn) [SE-I, (E)-methyl-2-(l-triethylsiloxy-2-methylaryl)hexadeca-2-enoate] | almost no oncolytic activity | – | –
5 | CCCCCCCCCCCC/C=C(\C(=O)OC)C(O)c1ccccc1 (stereo not drawn) [SE-Il, (Z)-methyl-2-(hydroxy(phenyl)methyl)pentadeca-2-enoate] | very high oncolytic activities | – | viabilities of the cancer cells [1, 2]: less than 20%
